From patent US7247644B2, “Ester derivatives of a decahydroisoquinoline-3-carboxylic acid as analgestics” (Eli Lilly and Company, priority 2003, dated 2007)

How the values were obtained:
Type in all cases: in vivo
[1] = Bioavailability in Dogs: plasma concentrations of parent acid by LC/MS/MS; conditions: both sexes, dog, iv; Compound A in plasma, Beagle dogs, 1 mg/kg
Procedure: (§1) Percent bioavailability is determined using the following equation:
(§2) [formula] wherein AUC represents the area under the curve, p.o. represents oral dose, and i.v. represents intravenous dose. Bioavailability in Dogs:
Beagle dogs (2 male and 1 female) are administered an oral dose, and later an iv dose of (3S,4aR,6R,8aR)-6-[2-(1(2)H-tetrazole-5-yl)ethyl-1,2,3,4,4a,5,6,7,8,8a-decahydroisoquinoline-3-carboxylic acid (10 mg/Kg p.o; 1 mg/Kg i.v.) to determine oral bioavailability. Subsequently, the same three dogs are administered an oral 10 mg/kg dose of an ester prodrug (for example (3S,4aR,6R,8aR)-6-[2-(1(2)H-tetrazole-5-yl)ethyl-1,2,3,4,4a,5,6,7,8,8a-decahydroisoquinoline-3-carboxylic acid ethyl ester, HCL salt) to determine whether the prodrug would increase bioavailability of the parent acid. The plasma concentrations of (3S,4aR,6R,8aR)-6-[2-(1(2)H-tetrazole-5-yl)ethyl-1,2,3,4,4a,5,6,7,8,8a-decahydroisoquinoline-3-carboxylic acid are determined by LC/MS/MS.
Live Phase: (3S,4aR,6R,8aR)-6-[2-(1(2)H-tetrazole-5-yl)ethyl-1,2,3,4,4a,5,6,7,8,8a-decahydroisoquinoline-3-carboxylic acid (HCl salt) is dissolved in dilute sodium hydroxide for oral administration (30 mg/ml) and in 10% ethanol/water for iv administration (10 mg/ml). […]

[2] = Bioavailability in Rats: plasma concentrations of parent acid by LC/MS/MS; conditions: male, rat, iv; Compound A in plasma, Fischer rats, 10 mg/kg
Procedure: as §1, §2
Male Fischer Rats are administered either an oral or iv dose of (3S,[…])-6-[2-(1(2)H-tetrazole-5-yl)ethyl-1,2,3,4,4a,5,6,7,8,8a-decahydroisoquinoline-3-carboxylic acid (10 mg/Kg) to determine oral bioavailability. A separate group of rats are administered an oral 10 mg/kg dose of an ester prodrug (for example (3S,4aR,6R,8aR)-6-[2-(1(2)H-tetrazole-5-yl)ethyl-1,2,3,4,4a,5,6,7,8,8a-decahydroisoquinoline-3-carboxylic acid ethyl ester, HCL salt) to determine whether the prodrug would increase bioavailability of the parent acid. The plasma concentrations of (3S,4aR,6R,8aR)-6-[2-(1(2)H-tetrazole-5-yl)ethyl-1,2,3,4,4a,5,6,7,8,8a-decahydroisoquinoline-3-carboxylic acid are determined by LC/MS/MS.

[3] = Bioavailability in Cynomolgus Monkeys: plasma concentrations of parent acid by LC/MS/MS; conditions: both sexes, cynomolgus monkey, iv, 0.3 mg/kg, Compound A in plasma, .3 mg/kg
Procedure: as §1, §2
Two male and two female monkeys are administered an oral, and later, an iv dose of (3S,4aR,6R,8aR)-6-[2-(1(2)H-tetrazole-5-yl)ethyl-1,2,3,4,4a,5,6,7,8,8a-decahydroisoquinoline-3-carboxylic acid (oral: 3 mg/kg; iv: 0.3 mg/kg) to determine oral bioavailability. The same animals are also subsequently administered an oral 3 mg/kg dose of (3S,4aR,6R,8aR)-6-[2-(1(2)H-tetrazole-5-yl)ethyl-1,2,3,4,4a,5,6,7,8,8a-decahydroisoquinoline-3-carboxylic acid ethyl ester to determine if the ester prodrug form increases bioavailability of the parent acid. The plasma concentrations of the parent acid are determined by LC/MS/MS.
Four cynomolgus monkeys (2/sex) are given a single oral dose of (3S,4aR,6R,8aR)-6-[2-(1(2)H-tetrazole-5-yl)ethyl-1,2,3,4,4a,5,6,7,8,8a-decahydroisoquinoline-3-carboxylic acid (3 mg/kg) on day 0, a single iv dose of (3S,4aR,6R,8aR)-6-[2-(1(2)H-tetrazole-5-yl)ethyl-1,2,3,4,4a,5,6,7,8,8a-decahydroisoquinoline-3-carboxylic acid (0.3 mg/kg) on day 4 and a single oral dose of (3S,4aR,6R,8aR)-6-[2-(1(2)H-tetrazole-5-yl)ethyl-1,2,3,4,4a,5,6,7,8,8a-decahydroisoquinoline-3-carboxylic acid ethyl ester (3 mg/kg) on day 8. […]

AUC [1]: 4220 ng·h/mL
Cmax [1]: 2820 ng/mL
AUC [2]: 6730 ng·h/mL
Cmax [2]: 11000 ng/mL
AUC [3]: 1080 ng·h/mL
Cmax [3]: 1620 ng/mL
SMILES: O=C(O)[C@@H]1C[C@H]2C[C@@H](CCc3nn[nH]n3)CC[C@H]2CN1 [Compound A]
